Laboratory results taken from patent US20120034192A1, “COMPOSITIONS AND METHODS FOR ENHANCING CELL REPROGRAMMING” (priority 2008, published 2012).

Legend:
histone deacetylase = settings: cited from earlier work
[1] = system: 2nd KSO cells (secondary mouse embryonic fibroblasts); assay: iPS cell colony formation from 2nd KSO secondary MEFs after siRNA transfection; format: cell-based; settings: siRNA 50 nM
Excerpt: Applicants next sought to determine the effect of inhibiting H3K9 methyltransferases on generation of iPS cells. For some experiments, Applicants used “secondary” mouse embryonic fibroblasts (MEFs) that express murine reprogramming factors Klf4, Sox2, and Oct4 under the control of a doxycycline (“dox”)-inducible promoter. These cells, which are referred to as “2nd KSO” cells for short, reprogram to form iPS cells at a low frequency upon treatment with doxycycline, as described in the literature. The cells contained an Oct4-neo transgene, thereby allowing use of G418 to select for cells that were reprogrammed to pluripotency (as evidenced by expression from the Oct4 promoter).
Applicants plated 2nd KSO cells into individual wells of 6-well dishes (100,000 cells per well) in mES cell medium (3 ml) on day 0. On day 1, cells in individual wells were transfected with siRNA (Ambion) designed to inhibit expression of a gene encoding one of the following H3K9 methyltransferases: Ehmt1, Ehmt2, Suv39h1, Suv39h2, and Riz1. Two different siRNAs targeted to each of these genes were used (each well received a single siRNA sequence). […] Accordingly, results obtained using this siRNA must be disregarded. […]
Cells were treated with dox to induce expression of the reprogramming factors. […] Colonies were counted on day 20.

G9a HMTase = biological target: T1, G9a HMTase (Homo sapiens, UniProt Q96KQ7); settings: cited from earlier work
T1 sequence (Q96KQ7 1-1210): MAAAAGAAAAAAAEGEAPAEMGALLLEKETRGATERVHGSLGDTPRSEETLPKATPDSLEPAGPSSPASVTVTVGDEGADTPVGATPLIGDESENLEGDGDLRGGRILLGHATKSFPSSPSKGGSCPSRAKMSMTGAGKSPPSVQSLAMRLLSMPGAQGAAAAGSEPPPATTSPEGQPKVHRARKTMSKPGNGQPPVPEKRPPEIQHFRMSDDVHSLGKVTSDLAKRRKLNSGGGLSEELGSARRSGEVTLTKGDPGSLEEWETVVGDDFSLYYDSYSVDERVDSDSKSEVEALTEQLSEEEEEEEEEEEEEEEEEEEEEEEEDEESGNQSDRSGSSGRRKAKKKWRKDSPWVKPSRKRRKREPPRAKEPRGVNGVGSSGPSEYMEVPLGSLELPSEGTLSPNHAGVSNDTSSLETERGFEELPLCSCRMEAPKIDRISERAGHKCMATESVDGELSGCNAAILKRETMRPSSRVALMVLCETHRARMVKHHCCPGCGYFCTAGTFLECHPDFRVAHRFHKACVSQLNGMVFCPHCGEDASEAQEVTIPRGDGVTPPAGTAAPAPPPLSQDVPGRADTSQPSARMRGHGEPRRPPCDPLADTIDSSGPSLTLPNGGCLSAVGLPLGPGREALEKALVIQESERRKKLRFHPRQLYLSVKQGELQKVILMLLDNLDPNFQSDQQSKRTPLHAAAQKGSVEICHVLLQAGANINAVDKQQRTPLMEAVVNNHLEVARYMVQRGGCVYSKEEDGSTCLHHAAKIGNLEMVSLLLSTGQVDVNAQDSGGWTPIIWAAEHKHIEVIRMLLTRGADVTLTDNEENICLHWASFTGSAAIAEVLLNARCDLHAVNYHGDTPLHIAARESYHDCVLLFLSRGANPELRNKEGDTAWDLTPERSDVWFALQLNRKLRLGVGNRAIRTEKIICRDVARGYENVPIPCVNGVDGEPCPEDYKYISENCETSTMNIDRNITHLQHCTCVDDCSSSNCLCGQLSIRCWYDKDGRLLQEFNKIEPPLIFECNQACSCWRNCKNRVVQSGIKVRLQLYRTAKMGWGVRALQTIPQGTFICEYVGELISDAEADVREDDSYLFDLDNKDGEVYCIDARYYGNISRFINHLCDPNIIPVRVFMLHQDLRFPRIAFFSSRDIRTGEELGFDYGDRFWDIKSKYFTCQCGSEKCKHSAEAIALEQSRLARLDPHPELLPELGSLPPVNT

## CC(/C=C/C(=O)NO)=C\[C@@H](C)C(=O)c1ccc(N(C)C)cc1 [Trichostatin A, [R-(E,E)]-7-[4-(Dimethylamino)phenyl]-N-hydroxy-4,6-dimethyl-7-oxo-2,4-heptadienamide]
Histone deacetylase
  concentration inhibiting histone deacetylase: nanomolar concentrations

## siRNA #2 against SetDB1: siRNA (Ambion) vs ESET/SetDB1; sense GGACGAUGCAGGAGAUAGAtt, antisense UCUAUCUCCUGCAUCGUCCga (sense GGACGAUGCAGGAGAUAGATT; antisense UCUAUCUCCUGCAUCGUCCGA; chemistry not given here)
[1]; dox, G418 from day 14, colonies counted on day 20
  number of iPS cell colonies / reprogramming efficiency: most striking increase in reprogramming efficiency

## COc1cc2nc(N3CCCN(C)CC3)nc(NC3CCN(Cc4ccccc4)CC3)c2cc1OC [BIX-01294]
G9a HMTase
  competition with cofactor S-adenosyl-methionine: does not compete with the cofactor S-adenosyl-methionine
G9a HMTase; in vitro
  selective inhibition of HMTase and generation of H3K9me2: selectively impairs the G9a HMTase and the generation of H3K9me2 in vitro

## s82302: siRNA (Ambion) vs suv39h2; sense GUGUCGAUGUGGACCUGAAtt, antisense UUCAGGUCCACAUCGACACct (sense GUGUCGAUGUGGACCUGAATT; antisense UUCAGGUCCACAUCGACACCT; chemistry not given here)
[1]; 2nd KSO cells
  cell growth: inhibited cell growth
